Drawing on paper PMC6480711, “The Molecular and Structural Basis of O-methylation Reaction in Coumarin Biosynthesis in Peucedanum praeruptorum Dunn” (International Journal of Molecular Sciences, 2019), this text covers equilibrium dissociation constant and HPLC product analysis for 2 compounds.

One assay addresses T1, COMT-S (Kitagawia praeruptora, UniProt A0A4P8DY91).
T1 construct: full-length CDS in pET28a, 6xHis tag, E. coli BL21 (DE3), Superdex 200
T1 sequence (A0A4P8DY91 1-364): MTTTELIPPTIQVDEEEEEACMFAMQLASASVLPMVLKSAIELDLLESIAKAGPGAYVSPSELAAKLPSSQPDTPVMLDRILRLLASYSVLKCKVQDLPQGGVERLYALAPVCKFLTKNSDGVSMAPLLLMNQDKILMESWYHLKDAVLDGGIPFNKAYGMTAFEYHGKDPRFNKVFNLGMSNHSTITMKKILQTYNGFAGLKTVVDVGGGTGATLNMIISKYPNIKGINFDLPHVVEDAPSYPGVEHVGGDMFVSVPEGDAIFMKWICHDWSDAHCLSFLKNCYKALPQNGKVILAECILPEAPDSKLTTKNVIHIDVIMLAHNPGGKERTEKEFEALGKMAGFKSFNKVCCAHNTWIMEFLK
As to the kind of experiment: isothermal titration calorimetry. It counts as binding. As to conditions: 25 mM Tris-HCl pH 8.0, 150 mM NaCl, 25 °C; cofactor analogue (product of SAM). (In general: In ITC the heat of successive injections is recorded.)

Another assay has as its target T2, PpBMT (Kitagawia praeruptora, UniProt A0A166U5H3).
T2 construct: gene BMT; recombinant, construct as in the authors' previous report
As to the kind of experiment: HPLC product analysis. It counts as biochemical. As to conditions: co-substrate SAM; product bergapten.

T2 sequence (A0A166U5H3 whole entry): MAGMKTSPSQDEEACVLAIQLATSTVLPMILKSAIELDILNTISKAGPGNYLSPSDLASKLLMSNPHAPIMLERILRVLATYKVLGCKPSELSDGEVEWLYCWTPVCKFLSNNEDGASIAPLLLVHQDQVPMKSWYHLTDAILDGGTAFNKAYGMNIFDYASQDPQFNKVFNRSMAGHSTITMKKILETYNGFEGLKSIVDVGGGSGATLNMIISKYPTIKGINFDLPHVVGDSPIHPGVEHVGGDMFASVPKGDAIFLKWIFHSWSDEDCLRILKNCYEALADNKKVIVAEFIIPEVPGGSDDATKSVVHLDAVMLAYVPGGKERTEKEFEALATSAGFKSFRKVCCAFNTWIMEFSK

`Nc1ncnc2c1ncn2[C@@H]1O[C@H](CSCC[C@H](N)C(=O)O)[C@@H](O)[C@H]1O` [SAH]: the equilibrium dissociation constant result on COMT-S was “The equilibrium dissociation constants of PpBMT/COMT–SAH interactions were determined by an MicroCal Auto-ITC200 calorimeter”.
As for `O=c1ccc2c(O)c3ccoc3cc2o1` [bergaptol], the HPLC product analysis result at PpBMT is “COMT-S could accept esculetin, bergaptol, and xanthotoxl as substrates, while BMT could only catalyze bergaptol”.
